In patent US20060281695A1, “Control of parasites in animals by N-[(phenyloxy)phenyl]-1,1,1-trifluoromethanesulfonamide and N-[(phenylsulfanyl)phenyl]-1,1,1-trifluoromethanesulfonamide derivatives” (priority 2005, published 2006):

Tests used:
[1] = test system: Haemonchus contortus; assay: Haemonchus contortus larvacidal (larval development) assay, LD99; format: in vitro
Experimental: The LD99 value is the dose, expressed as […], that was required to kill 99% of a sample of Haemonchus contortus.
a) Haemonchus Contortus Larvacidal Assay:
The effect of compounds on larval development was determined in the assay described by Gill et al. [International Journal of Parasitology 25:463-470 (1995)]. Briefly, in this assay, nematode eggs are applied to the surface of an agar matrix containing the test compound and then allowed to develop through to the L3, infective stage (6 days). The wells for each dilution of every compound (from highest to lowest concentration) are inspected to determine the well number corresponding to the lowest concentration at which development is inhibited in 99% of the nematode larvae present (LD99). Because well numbers correspond to a two-fold serial dilution of each compound, a titre (dilution factor) is generated as 2^n−1, where n is the well number. By dividing the highest concentration tested by the titre an LD99 value can be obtained, representing the concentration required to inhibit development in 99% of the nematode larvae present. The compounds supplied as solid and viscous liquids are dissolved in DMSO. Twelve serial one-half dilutions in DMSO solution are prepared from the stock solution, each of which is then diluted 1/5 with water. Aliquots (10 μl) of each dilution are transferred to the bioassay plates to give a final concentration range of 0.024 to 50 μg/ml.
(§1) In Table 7, provided below, are listed the Haemonchus contortus LD99 values (measured in micrograms/mL), the Ctenocephalides felis rapid screening values (measured in % mortality), the Ctenocephalides felis LC50 values (measured in micrograms/cm^2) and the Rhipicephalus sanguineus rapid screening values (measured in % mortality) for selected compounds in accordance with the present invention.

[2] = test system: cat flea (Ctenocephalides felis); assay: Ctenocephalides felis adulticide assay: single dose screen on treated glass surface (% mortality at 1.26 μg/cm^2, 24 hours); format: in vivo; conditions: for mortality at 1.26 µg/cm2, 1.26 µg/cm2: Ctenocephalides felis, 24 h, read-out: Ctenocephalides felis Mortality (%) 24 h
Experimental: The LC50 value is the concentration, expressed as μg/cm^2, that was required to kill 50% of the sample of cat fleas on contact with the tested compound. Certain tests are also reported as the percent of a sample of cat fleas that were killed at a concentration of 1.26 μg/cm^2 (“% mortality”), for the compounds tested in this way.
b) Ctenocephalides felis Adulticide Assay: C.felis single dose screen
Mortality of fleas is the primary endpoint in the assay. […] The concentration chosen (1.26 μg/cm^2) is higher than that known to kill 90% of cat fleas (LC90) using the reference compound, permethrin.
The test species employed was the cat flea (Ctenocephalides felis). The strain used was obtained from external suppliers as pupae and held in the laboratory under testing conditions until the adults had emerged. Fifteen (15) fleas were used in a minimum of four replicates against a single concentration level (approximately 60 fleas). The insects were selected to be in the adult life stage, aged between 3 and 7 days post emergence.
The compounds to be tested were supplied as solids and were prepared in acetone as described below prior to testing. Samples were stored in a refrigerator (5±1° C.) unless otherwise specified.
During the mortality testing, the temperature was maintained at 25±1° C. Humidity was maintained at 75±5%. The base (area=159 mm^2) of a 100 mL glass Erlenmeyer (conical) flask provided the treatment surface. Flasks were pre-treated with Coatasil™ glass treatment to maximise bio-availability of test compounds by preventing them from binding to glass the surface. The base of the 100 mL Erlenmeyer flask was treated with 0.5 mL of test sample in acetone and gently swirled. This volume was sufficient to cover the base of the flask. Flasks were left to dry for 24 hours before flea exposure.
Adult cat fleas were placed into a sorting chamber, which allowed fleas to jump into the Erlenmeyer flasks. Fifteen (15) adult cat fleas were collected in each flask. The top of the flasks were then covered in Parafilm™ and small holes were made to allow gas exchange. A 0.5 mL volume of acetone as a solvent control was applied to the base of an Erlenmeyer flask and the testing proceeded in the same manner described above. […] Pooled 24 hour mortality data were converted to percentages and are summarized by Table 4, below.
as §1

[3] = test system: Brown Dog Tick (Rhipicephalus sanguineus); assay: Topical application on brown dog ticks, single dose screen (% mortality at 24 hours); format: in vivo; conditions: adult brown dog ticks, topical 1 μL in acetone on abdomen, single dose 10 μg per tick
Experimental: d) Topical Application On Brown Dog Ticks (Rhipicephalus sanguineus)
The aim of the test is to determine the presence of significant acaricidal activity in sample compounds or formulations when applied topically on brown dog ticks. A tick is defined as dead if it gives no apparent response when: (i) touched lightly and (ii) then observed for 1 minute. To assess the experimental compound for acaricidal activity, a single dose level is chosen based on known results from previous experiments with a commercially available active reference compound.
In the present example, both permethrin and fipronil were employed as reference compounds. The insect species tested was the Brown Dog Tick (Rhipicephalus sanguineus). Mixed sex adult ticks were used for tests. The strain used was cultured from a field strain and supplied as unfed adult ticks (mixed sex). Ticks were maintained in controlled conditions (temp. 18°±2° C., humidity 75±5% RH).
Test compounds (formulations or active ingredients) were stored in a refrigerator (5±1° C.) unless otherwise specified. The temperature was maintained at 25±1° C. and the humidity was ambient. The screening dose chosen was higher than that known kill 90% of insects (LD90) using the reference compound. In the case of topical application of active compounds on adult ticks, the reference compound was fipronil and the dose chosen was 10 μg of active per tick (=10 μg of fipronil/1 μl of acetone). Ticks were each treated on the abdomen with 1 μL of a single dose level of test sample in acetone; ten ticks were treated with solvent only (acetone) in each test. Tests were replicated 4 times (total of 40 ticks treated). Ticks were held in recovery containers maintained under appropriate rearing conditions for 24 hours. Mortality resulting from the treatments was recorded at 24 hours. Pooled 24 hour mortality data were converted to percentages.
as §1

[4] = adult cat fleas, single dose screen on treated glass surface, mortality at 24 h

| Structure (SMILES) | Haemonchus contortus LD99 [1] [µg/mL] | Ctenocephalides felis Mortality (%) 24 h ([2]; in vivo) [%] | Ctenocephalides felis Mortality (%) 24 h [2, 4] [%] | Rhipicephalus sanguineus Mortality (%) 24 h [3] [%] | mortality at 1.26 µg/cm2, 1.26 µg/cm2 [2] [%] | Ctenocephalides felis Mortality (%), measured at 48 hours ([2]; in vivo) [%] |
| --- | --- | --- | --- | --- | --- | --- |
| CC(C)(C)c1ccc(Oc2cc(Cl)ccc2NS(=O)(=O)C(F)(F)F)cc1 [Compound 3] | 7.0 | 58 | – | – | – | – |
| O=S(=O)(Nc1ccc(Cl)cc1Oc1ccccc1Cl)C(F)(F)F [Compound 6] | 15.0 | 74 | – | – | – | – |
| O=S(=O)(Nc1ccc(Cl)cc1Oc1ccc(Cl)c(Cl)c1)C(F)(F)F [Compound 7] | 1.63 | – | 22 | – | – | – |
| O=S(=O)(Nc1cc(C(F)(F)F)ccc1Oc1ccc(Cl)cc1Cl)C(F)(F)F [Compound 10] | 1.5 | 38 | – | – | – | – |
| O=S(=O)(Nc1cccc(Cl)c1Oc1ccc(Cl)cc1Cl)C(F)(F)F [Compound 11] | 2.5 | 20 | – | – | – | – |
| O=S(=O)(Nc1cc(Cl)c(Cl)cc1Oc1ccc(Cl)cc1Cl)C(F)(F)F [Compound 13] | 1.8 | 48 | – | – | – | – |
| O=S(=O)(Nc1ccc(Cl)c(Cl)c1Oc1ccccc1F)C(F)(F)F [Compound 17] | 7.5 | 19 | – | – | – | – |
| CC(C)(C)c1ccc(Oc2cc(Cl)c(Cl)cc2NS(=O)(=O)C(F)(F)F)cc1 [Compound 18] | 2.8 | 19 | – | – | – | – |
| O=S(=O)(Nc1cc(Cl)c(Cl)cc1Oc1ccc(F)cc1Cl)C(F)(F)F [Compound 19] | 5.0 | 42 | – | – | – | – |
| O=S(=O)(Nc1cc(C(F)(F)F)c(Cl)cc1Oc1ccc(Cl)cc1Cl)C(F)(F)F [Compound 22] | 0.63 | 4 | – | – | – | – |
| O=S(=O)(c1ccc(Cl)cc1)c1cc(Cl)ccc1NS(=O)(=O)C(F)(F)F [Compound 24, N-[4-chloro-2-(4-(chlorophenyl)sulfonyl)phenyl]-1,1,1-trifluoromethanesulfonamide] | 12.0 | 19 | – | – | – | – |
| Cc1cccc(Oc2cc(Cl)ccc2NS(=O)(=O)C(F)(F)F)c1C [Compound 27] | 14 | 59 | – | – | – | – |
| O=S(=O)(Nc1ccc(Cl)cc1Oc1cccc2c1CCCC2)C(F)(F)F [Compound 28] | 12 | – | 10 | – | – | – |
| O=S(=O)(Nc1cc(C(F)(F)F)ccc1Oc1ccc(Cl)cc1)C(F)(F)F [Compound 29] | 7.0 | 57 | – | – | – | – |
| CN(c1ccc(Cl)cc1Oc1ccc(Cl)cc1Cl)S(=O)(=O)C(F)(F)F [Compound 70, N-[4-Chloro-2-(2,4-dichlorophenoxy)phenyl]-N-methyl-1,1,1-trifluoromethanesulfonamide] | – | – | – | 5 | 11 | 91 |
| CCOCN(c1ccc(Cl)cc1Oc1ccc(Cl)cc1Cl)S(=O)(=O)C(F)(F)F [Compound 71, N-[4-Chloro-2-(2,4-dichlorophenoxy)phenyl]-N-ethoxymethyl 1,1,1-trifluoromethanesulfonamide] | – | 0 | – | 5 | – | 100 |
| CC(C)(C)C(=O)OCN(c1ccc(Cl)cc1Oc1ccc(Cl)cc1Cl)S(=O)(=O)C(F)(F)F [Compound 72, N-[4-Chloro-2-(2,4-dichlorophenoxy)phenyl]-N-(trimethylacetyl)oxymethyl-1,1,1-trifluoromethanesulfonamide] | – | – | – | 0 | 14 | 100 |
| CCCC(=O)OCN(c1ccc(Cl)cc1Oc1ccc(Cl)cc1Cl)S(=O)(=O)C(F)(F)F [Compound 73, N-[4-chloro-2-(2,4-dichlorophenoxy)phenyl]-N-(butyryl)oxymethyl-1,1,1-trifluoromethanesulfonamide] | – | – | – | 8 | 31 | 100 |
| CC(C)=CCN(c1ccc(Cl)cc1Oc1ccc(Cl)cc1Cl)S(=O)(=O)C(F)(F)F [Compound 75, N-(3-methyl-2-butenyl)-N-[4-chloro-2-(2,4-dichlorophenoxy)phenyl]-1,1,1-trifluoromethanesulfonamide] | – | – | – | 3 | 97 | – |
| CC(C)=CCN(c1ccc(Cl)cc1Oc1ccccc1F)S(=O)(=O)C(F)(F)F [Compound 82] | – | 90 | – | 0 | – | – |
| C#CCN(c1ccc(Cl)cc1Oc1ccc(Cl)cc1Cl)S(=O)(=O)C(F)(F)F [Compound 83, N-[4-chloro-2-(2,4-dichlorophenoxy)phenyl]-N-(2-propynyl)-1,1,1-trifluoromethanesulfonamide] | – | – | – | 8 | 100 | – |
| COCN(c1ccc(Cl)cc1Oc1ccc(Cl)cc1Cl)S(=O)(=O)C(F)(F)F [Compound 84] | – | 100 | – | 0 | – | – |
| C#CCN(c1ccc(Cl)cc1Oc1ccccc1F)S(=O)(=O)C(F)(F)F [Compound 85] | – | 97 | – | 5 | – | – |
| O=S(=O)(Nc1ccccc1Nc1ccccc1)C(F)(F)F [Compound 90] | – | 88 | – | 13 | – | – |
| O=S(=O)(Nc1cccc(Oc2ccccc2)c1)C(F)(F)F [m1] | – | 93 | – | 38 | – | – |
